Tests used:
PDE-4 = assay: Phosphodiesterase 4 assay, [3H]cAMP SPA enzyme assay, enzyme preparation from rat heart; assay type: biochemical
Protocol: For phosphodiesterase (PDE-4) assay, enzyme preparations were performed from rat heart (Ko et al 2004, Biochemical Pharmacology 68:2087-2094). Heart was excised from anesthetized rat and transfer into normal saline solution. Heart weighing 687 mg was taken and homogenized in 2.5 volumes of homogenization buffer containing 20 mM Tris-Cl, 50 mM NaCl, 2 mM EDTA, 0.1 mM PMSF, […], protease inhibitors 1 μg/μl. The homogenate was centrifuged at 500×g for 5 minute at 4° C. Then sup was taken for further centrifuged at 40,000×g for 30 minute (ultra centrifugation). After centrifugation supernatant was collected for phosphodiesterase assay. Protein concentration was estimated and for each assay, 2.5 μg protein (PDE enzyme preparation) was used. All compounds tested for PDE 4 activity were dissolved in DMSO.
Phosphodiesterase 4 assay: Phosphodiesterase 4 assay was conducted with [^3H] cAMP SPA enzyme assay (GE Amersham, UK) using 2.5 μg enzyme preparation for each well. Into each well 60 μl water, 10 μl assay buffer supplied with the kit, 10 μl compound (inhibitor), 10 μl PDE enzyme or homogenizing buffer (blank) and […] radiolabel led cAMP ([^3H]cAMP, GE Amersham, UK) were added. To check activity of the enzyme without inhibitor (compound) 10 μl DMSO was added in place of inhibitor to a separate well. The reaction mixtures were incubated for […] at 30° C. The reaction was stopped by adding 50 μl SPA bead supplied with the kit. It was then mixed well and allowed to stand at room temperature for 20 min. Breakdown of cAMP in each tube was monitored by β counter. The reading in each tube was obtained in counts per minute (CPM). The reading of the blank tube (without enzyme) was subtracted from each tube to normalize the counts. The enzyme activity was calculated by considering the CPM reading without any inhibitor (compound) as 100.

[1] = system: BALB/c mice sensitized and challenged with ovalbumin (OVA); assay: Airway responsiveness to methacholine in mouse model of asthma; assay type: in vivo
Protocol: Present invention describes the efficacy of compound I in vivo mouse model of asthma. BALB/c mice were sensitized and challenged with ovalbumin (OVA) as shown in scheme 2 to develop asthmatic features such as airway hyperreactivity (AHR) to methacholine (MCh).
Mice were sensitized with 0.2 ml PBS containing 50 μg ovalbumin (OVA) (Sigma, USA) and 4 mg aluminum hydroxide in saline intraperitonially (i.p.) on days 0, 7 and 14 as shown in scheme 2. Sham group mice were sensitized with only alum dissolved in PBS. From day 21 to 30, mice were exposed to aerosol of OVA (3%) inhalation 25 minutes daily in a Plexiglas chamber (20×20×10 cm^3). The aerosol was generated by a nebulizer (OMRON CX, model) with an airflow rate of 9 L/minute. Sham group mice were challenged with PBS alone. […]
Airway responsiveness was measured by barometric plethysmography using whole-body plethysmography (WBP; Buxco, Troy, N.Y.) 12 hours after last saline or ovalbumin challenge. […] Enhanced pause (Penh) to methacholine as measured using barometric plethysmography is a valid indicator of bronchoconstriction in mice and can be used to measure AHR. […] Readings were taken and averaged for 5 minutes from the starting time of nebulisation. Airway responsiveness to MCh was evaluated by the concentration of MCh required to increase the Pen H to twice the baseline value (MCh PC200).

mice = assay: Analgesic activity by hot plate method; assay type: in vivo
Protocol: Analgesic activity was carried out by Hot Plate method. The response time for paw licking or jumping on the heated plate of analgesiometer (55±1° C.). (Socrel, Ugo Basile, Italy) was taken as the reaction time. A comparison of reaction time (in seconds) between control (untreated) and Compound I treated mice was made for a group of 6 animals in each test group [Eddy, N B., Leimbach, D., Synthetic analgesics, II. Dithienylbutenyl- and dithienylbutylamines. J. Pharmacol. Exp. Ther. 107 (1953) 385-393].
The time for hind paw licking or jumping on the heated plate of analgesiometer (Socrel, ugo basile, Italy) was taken as the reaction time.

rats = assay: Bile secretion; assay type: in vivo
Protocol: Rats were anaesthetized with urethane (25% w/v; 0.6 ml/100 g bw, ip). A catheter was placed in the jugular vein for Compound I administration. Abdominal cavity was opened by midline incision and the common bile duct was cannulated to measure the biliary secretion which was collected over 2 hours duration. The total bile excreted was compared between control (untreated) and Compound I treated rats [Shetler, T., Bendele, A., Buening, M., Clemens, J., Colbert, W., Deldar, A., Helton, D., Mc Grath J., Shannon, H., Turk, J., Williams, P., General Pharmacology of Loracarbef in Animals. Arzneim-Forsch./Drug Res. 43 (1993) 1-6].

[2] = Crossing of the intestinal barrier; assay type: in vitro ADME

COc1cc(C=O)cc2c1[nH]c1ccccc12 [Compound I, 1-methoxy-3-formyl-9H carbazole]
% of Inhibition (PDE-4; 0.1 μg/ml): 1.4% | % of Inhibition (PDE-4; 1 μg/ml): 34.7% | % of Inhibition (PDE-4; 10 μg/ml): 73.1% | IC50 (PDE-4; compound of natural origin (extraction from plants)): 20 µM | extent of inhibition of PDE 4 activity (PDE-4; compound of natural origin, compared with rolipram): comparable to known PDE 4 inhibitor, rolipram | IC50 (PDE-4; synthetically prepared compound (chemical origin)): 0.05 µM | MChPC200 (airway hyper-responsiveness) ([1]; 0.1, 1 and 10 mg/kg orally twice per day): significantly attenuated the decrease in MChPC200 | dose with maximum effect on MChPC200 ([1]; orally twice per day): 10 mg/kg | Reaction time (mice; 12.5 mg/kg p.o., 0 hr): 11.08 ± 1.60 s | Reaction time (mice; 12.5 mg/kg p.o., 1 hr): 10.62 ± 1.64 s | Reaction time (mice; 25 mg/kg p.o., 0 hr): 13.58 ± 2.15 s | Reaction time (mice; 25 mg/kg p.o., 1 hr): 14.62 ± 4.67 s | Reaction time (mice; 50 mg/kg p.o., 0 hr): 14.38 ± 1.87 s | Reaction time (mice; 50 mg/kg p.o., 1 hr): 14.34 ± 1.07 s | change in the reaction time on a hot plate (mice; 12.5, 25 and 50 mg/kg orally, 55±1° C.): did not show any significant change in the reaction time | Bile (grams ± SEM) After (rats; 25 mg/kg i.v.): 1.390 ± 0.06 grams | Bile (grams ± SEM) Before (rats; 25 mg/kg i.v.): 1.285 ± 0.049 grams | Bile (grams ± SEM) After (rats; 50 mg/kg i.v.): 1.125 ± 0.125 grams | Bile (grams ± SEM) Before (rats; 50 mg/kg i.v.): 1.305 ± 0.145 grams | change in the mass of bile collected (rats; 25 and 50 mg/kg intravenously): no significant change in the mass of bile collected | crosses the intestinal barrier [2]: largely by passive diffusion

Reference: patent publication US8519154B2, “Method for treatment of bronchial asthma” (Council of Scientific & Industrial Research, priority 2011, dated 2013)
